For the test, the target named is T1, SYK kinase (Homo sapiens, UniProt P43405).
T1 construct: purchased Invitrogen, Carlsbad
In words: SYK assay (OMNIA Kinase Assay, Invitrogen). It counts as biochemical. Conditions: SYK Activities; 1 mM ATP, 10 μM Omnia Peptide Substrate Tyr 7, 30° C. A digest of the protocol: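 SYK was added last to start phosphorylation of a chelation-enhanced SOX peptide substrate (10 μM) in the presence of 1 mM ATP and 0.2 mM DTT at 30° C. Kinetic readings at λex 360/λem 485 nm over 30 min gave velocities, fitted sigmoidally against compound concentration to give IC50.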
Consider `CC(C)(C)N1CCC(n2cc(Nc3nc(-c4nc5ccccc5s4)nc4cn[nH]c34)cn2)CC1` [Example 411, 5-(benzo[d]thiazol-2-yl)-N-(1-(1-(tert-butyl)piperidin-4-yl)-1H-pyrazol-4-yl)-1H-pyrazolo[4,3-d]pyrimidin-7-amine], for which the IC50 is below 10 nM.

As to `COCCCn1cc(Nc2nc(-c3nc4ccccc4s3)nc3cn[nH]c23)cn1` [Example 412, 5-(benzo[d]thiazol-2-yl)-N-(1-(3-methoxypropyl)-1H-pyrazol-4-yl)-1H-pyrazolo[4,3-d]pyrimidin-7-amine], the IC50 was below 10 nM.

Take `c1ccc2sc(-c3nc(Nc4cnn(C5CCOCC5)c4)c4[nH]ncc4n3)nc2c1` [Example 413, 5-(benzo[d]thiazol-2-yl)-N-(1-(tetrahydro-2H-pyran-4-yl)-1H-pyrazol-4-yl)-1H-pyrazolo[4,3-d]pyrimidin-7-amine]: the IC50 is below 10 nM.

Compound `CC(C)n1cc(Nc2nc(-c3ccc4cn[nH]c4c3)nc3cn[nH]c23)cn1` [Example 414, 5-(1H-indazol-6-yl)-N-(1-isopropyl-1H-pyrazol-4-yl)-1H-pyrazolo[4,3-d]pyrimidin-7-amine] showed an IC50 of 10 to 100 nM.

For the compound `CC(C)(C)n1cc(Nc2nc(-c3ccc4cn[nH]c4c3)nc3cn[nH]c23)cn1` [Example 415, N-(1-(tert-butyl)-1H-pyrazol-4-yl)-5-(1H-indazol-6-yl)-1H-pyrazolo[4,3-d]pyrimidin-7-amine], the IC50 was in the range of 10 to 100 nM.

With `CC(C)(C#N)n1cc(Nc2nc(-c3ccc4cn[nH]c4c3)nc3cn[nH]c23)cn1` [Example 416, 2-(4-((5-(1H-indazol-6-yl)-1H-pyrazolo[4,3-d]pyrimidin-7-yl)amino)-1H-pyrazol-1-yl)-2-methylpropanenitrile], the IC50 lay in the range of 10 to 100 nM.

As for `FCCn1cc(Nc2nc(-c3ccc4cn[nH]c4c3)nc3cn[nH]c23)cn1` [Example 417, N-(1-(2-fluoroethyl)-1H-pyrazol-4-yl)-5-(1H-indazol-6-yl)-1H-pyrazolo[4,3-d]pyrimidin-7-amine], the IC50 is below 10 nM.

Turning to `c1nn(C2CC2)cc1Nc1nc(-c2ccc3cn[nH]c3c2)nc2cn[nH]c12` [Example 418, N-(1-cyclopropyl-1H-pyrazol-4-yl)-5-(1H-indazol-6-yl)-1H-pyrazolo[4,3-d]pyrimidin-7-amine], the IC50 is below 10 nM.

`COCCCn1cc(Nc2nc(-c3ccc4cn[nH]c4c3)nc3cn[nH]c23)cn1` [Example 419, 5-(1H-indazol-6-yl)-N-(1-(3-methoxypropyl)-1H-pyrazol-4-yl)-1H-pyrazolo[4,3-d]pyrimidin-7-amine] came in with an IC50 of 10 to 100 nM.

Consider `CC(C)n1cc(Nc2nc(-c3cnn(C)c3)nc3cn[nH]c23)cn1` [Example 420, N-(1-isopropyl-1H-pyrazol-4-yl)-5-(1-methyl-1H-pyrazol-4-yl)-1H-pyrazolo[4,3-d]pyrimidin-7-amine], for which the IC50 was 10 to 100 nM.

`CC(C)n1cc(-c2nc(Nc3ccc(N4CCOCC4)cc3)c3[nH]ncc3n2)cn1` [Example 421, 5-(1-isopropyl-1H-pyrazol-4-yl)-N-(4-morpholinophenyl)-1H-pyrazolo[4,3-d]pyrimidin-7-amine] gave an IC50 of 10 to 100 nM.

`OCCN1CCN(c2ccc(Nc3nc(-c4ccc5cn[nH]c5c4)nc4cn[nH]c34)cc2)CC1` [Example 422, 2-(4-(4-((5-(1H-indazol-6-yl)-1H-pyrazolo[4,3-d]pyrimidin-7-yl)amino)phenyl)piperazin-1-yl)ethan-1-ol] registered an IC50 of 10 to 100 nM.

Take `CC(C)Cn1cc(Nc2nc(-c3ccc4cn[nH]c4c3)nc3cn[nH]c23)cn1` [Example 423, 5-(1H-indazol-6-yl)-N-(1-isobutyl-1H-pyrazol-4-yl)-1H-pyrazolo[4,3-d]pyrimidin-7-amine]: the IC50 was in the range of 10 to 100 nM.

The compound `COCCCn1cc(Nc2nc(-c3cccc(S(N)(=O)=O)c3)nc3cn[nH]c23)cn1` [Example 424, 3-(7-((1-(3-methoxypropyl)-1H-pyrazol-4-yl)amino)-1H-pyrazolo[4,3-d]pyrimidin-5-yl)benzenesulfonamide] came in with an IC50 of 100 to 1000 nM.

`NS(=O)(=O)c1cccc(-c2nc(Nc3cnn(C4CCOCC4)c3)c3[nH]ncc3n2)c1` [Example 425, 3-(7-((1-(tetrahydro-2H-pyran-4-yl)-1H-pyrazol-4-yl)amino)-1H-pyrazolo[4,3-d]pyrimidin-5-yl)benzenesulfonamide] gave an IC50 of 10 to 100 nM.

`CC(C)n1cc(Nc2nc(-c3cccc(S(N)(=O)=O)c3)nc3cn[nH]c23)cn1` [Example 426, 3-(7-((1-isopropyl-1H-pyrazol-4-yl)amino)-1H-pyrazolo[4,3-d]pyrimidin-5-yl)benzenesulfonamide] showed an IC50 of 10 to 100 nM.

On to `CC(=O)N1CCC(n2cc(Nc3nc(-c4cccc(S(N)(=O)=O)c4)nc4cn[nH]c34)cn2)CC1` [Example 427, 3-(7-((1-(1-acetylpiperidin-4-yl)-1H-pyrazol-4-yl)amino)-1H-pyrazolo[4,3-d]pyrimidin-5-yl)benzenesulfonamide], for which the IC50 is 100 to 1000 nM.

In turn, `CC(C)Cn1cc(Nc2nc(-c3cccc(S(N)(=O)=O)c3)nc3cn[nH]c23)cn1` [Example 428, 3-(7-((1-isobutyl-1H-pyrazol-4-yl)amino)-1H-pyrazolo[4,3-d]pyrimidin-5-yl)benzenesulfonamide] showed an IC50 of 10 to 100 nM.

`COCCCn1cc(Nc2nc(-c3cccs3)nc3cn[nH]c23)cn1` [Example 429, N-(1-(3-methoxypropyl)-1H-pyrazol-4-yl)-5-(thiophen-2-yl)-1H-pyrazolo[4,3-d]pyrimidin-7-amine] had an IC50 of 10 to 100 nM.

Compound `c1csc(-c2nc(Nc3cnn(C4CCOCC4)c3)c3[nH]ncc3n2)c1` [Example 430, N-(1-(tetrahydro-2H-pyran-4-yl)-1H-pyrazol-4-yl)-5-(thiophen-2-yl)-1H-pyrazolo[4,3-d]pyrimidin-7-amine] returned an IC50 of 10 to 100 nM.

As to `CC(C)n1cc(Nc2nc(-c3cccs3)nc3cn[nH]c23)cn1` [Example 431, N-(1-isopropyl-1H-pyrazol-4-yl)-5-(thiophen-2-yl)-1H-pyrazolo[4,3-d]pyrimidin-7-amine], the IC50 was 10 to 100 nM.

In turn, `CC(C)Cn1cc(Nc2nc(-c3cccs3)nc3cn[nH]c23)cn1` [Example 432, N-(1-isobutyl-1H-pyrazol-4-yl)-5-(thiophen-2-yl)-1H-pyrazolo[4,3-d]pyrimidin-7-amine] yielded an IC50 of 10 to 100 nM.

As for `CN1CCC(n2cc(Nc3nc(-c4cccs4)nc4cn[nH]c34)cn2)CC1` [Example 433, N-(1-(1-methylpiperidin-4-yl)-1H-pyrazol-4-yl)-5-(thiophen-2-yl)-1H-pyrazolo[4,3-d]pyrimidin-7-amine], the IC50 was below 10 nM.

For the compound `COCCCn1cc(Nc2nc(-c3cnn(C)c3)nc3cn[nH]c23)cn1` [Example 436, N-(1-(3-methoxypropyl)-1H-pyrazol-4-yl)-5-(1-methyl-1H-pyrazol-4-yl)-1H-pyrazolo[4,3-d]pyrimidin-7-amine], the IC50 is 100 to 1000 nM.

The compound `CC(C)Cn1cc(Nc2nc(-c3cnn(C)c3)nc3cn[nH]c23)cn1` [Example 437, N-(1-isobutyl-1H-pyrazol-4-yl)-5-(1-methyl-1H-pyrazol-4-yl)-1H-pyrazolo[4,3-d]pyrimidin-7-amine] showed an IC50 of 10 to 100 nM.

The compound `Fc1cccc(F)c1-c1nc(Nc2cnn(C3CCOCC3)c2)c2[nH]ncc2n1` [Example 439, 5-(2,6-difluorophenyl)-N-(1-(tetrahydro-2H-pyran-4-yl)-1H-pyrazol-4-yl)-1H-pyrazolo[4,3-d]pyrimidin-7-amine] displayed an IC50 of 100 to 1000 nM.

`CC(C)Cn1cc(Nc2nc(-c3c(F)cccc3F)nc3cn[nH]c23)cn1` [Example 440, 5-(2,6-difluorophenyl)-N-(1-isobutyl-1H-pyrazol-4-yl)-1H-pyrazolo[4,3-d]pyrimidin-7-amine] came in with an IC50 of 100 to 1000 nM.

In turn, `OCCN1CCN(c2ccc(Nc3nc(-c4ccoc4)nc4cn[nH]c34)cc2)CC1` [Example 442, 2-(4-(4-((5-(furan-3-yl)-1H-pyrazolo[4,3-d]pyrimidin-7-yl)amino)phenyl)piperazin-1-yl)ethan-1-ol] returned an IC50 of 10 to 100 nM.

Regarding `OC1CCN(c2ccc(Nc3nc(-c4ccoc4)nc4cn[nH]c34)cc2)CC1` [Example 443, 1-(4-((5-(furan-3-yl)-1H-pyrazolo[4,3-d]pyrimidin-7-yl)amino)phenyl)piperidin-4-ol], the IC50 fell in the range of 10 to 100 nM.

In turn, `OCCn1cc(Nc2nc(-c3nc4ccccc4o3)nc3cn[nH]c23)cn1` [Example 444, 2-(4-((5-(benzo[d]oxazol-2-yl)-1H-pyrazolo[4,3-d]pyrimidin-7-yl)amino)-1H-pyrazol-1-yl)ethan-1-ol] returned an IC50 of 100 to 1000 nM.

For `CN1CCC(n2cc(Nc3nc(-c4nc5ccccc5o4)nc4cn[nH]c34)cn2)CC1` [Example 445, 5-(benzo[d]oxazol-2-yl)-N-(1-(1-methylpiperidin-4-yl)-1H-pyrazol-4-yl)-1H-pyrazolo[4,3-d]pyrimidin-7-amine], the IC50 was in the range of 10 to 100 nM.

`c1ccc2oc(-c3nc(Nc4cnn(C5CCOCC5)c4)c4[nH]ncc4n3)nc2c1` [Example 446, 5-(benzo[d]oxazol-2-yl)-N-(1-(tetrahydro-2H-pyran-4-yl)-1H-pyrazol-4-yl)-1H-pyrazolo[4,3-d]pyrimidin-7-amine] showed an IC50 of 10 to 100 nM.

In turn, `c1nn(C2CCNC2)cc1Nc1nc(-c2ccc3cn[nH]c3c2)nc2cn[nH]c12` (centres unmarked) [Example 447, 5-(1H-indazol-6-yl)-N-(1-(pyrrolidin-3-yl)-1H-pyrazol-4-yl)-1H-pyrazolo[4,3-d]pyrimidin-7-amine] displayed an IC50 below 10 nM.

As for `COCC(COC)n1cc(Nc2nc(-c3ccc4cn[nH]c4c3)nc3cn[nH]c23)cn1` [Example 448, N-(1-(1,3-dimethoxypropan-2-yl)-1H-pyrazol-4-yl)-5-(1H-indazol-6-yl)-1H-pyrazolo[4,3-d]pyrimidin-7-amine], the IC50 lay within 10 to 100 nM.

Consider `CC(C)(O)Cn1cc(Nc2nc(-c3ccc4cn[nH]c4c3)nc3cn[nH]c23)cn1` [Example 449, 1-(4-((5-(1H-indazol-6-yl)-1H-pyrazolo[4,3-d]pyrimidin-7-yl)amino)-1H-pyrazol-1-yl)-2-methylpropan-2-ol], for which the IC50 was 10 to 100 nM.

Usually IC50 stands for the concentration that inhibits the measured activity by half.

(Values after patent US9637491B2, “Pyrazolo[4,3-D]pyrimidines as kinase inhibitors” (Origenis GmbH, priority 2012, dated 2017).)
